According to US8680094B2, “1, 4-benzoxazine compounds and derivatives thereof as therapeutic drugs for the treatment of neurodegenerative conditions” (Board of Regents, The University of Texas System, priority 2008, dated 2014):

Experiments:
Assay in all cases: In vitro kinase activity
Assay type in all cases: biochemical
CDK2/Cyclin A1 = CDK2/Cyclin A1 (Homo sapiens, UniProt P24941); conditions: percentage of control assays without compound, mean of duplicate
Procedure: (§1) To better understand the mechanism of action of the compounds of the present invention, but in no way a limitation; the effects of HSB-13 and ASK-2a on 20 different kinases were examined in vitro. At 500 nM concentration, ASK-2a inhibited the kinase activities of GSK3α, GSK3β, p38α, p38β, JNK3, MLK3, and B-Raf substantially. […] As described above, ASK-2a protects cerebellar granule neurons against LK-induced death but is ineffective against HCA-induced toxicity of HT-22 cells. In contrast, HSB-13 is protective in both paradigms. […] Previous studies have established that CDK inhibitors can protect neurons against a number of different apoptotic stimuli.
(§2) The activity of each kinase was measured in vitro in the presence either 100 nM or 500 nM ASK-2a. Kinase activity is expressed as a percentage of that in control assays (without ASK-2a). The values are mean of assays performed in duplicate. Substantial inhibition of kinase activity (>20%) is in bold type.
(§3) Table 3: Effect of HSB-13 at 500 nM on 20 different kinases measured in vitro. Kinase activity is expressed as a percentage of that in control assays (without HSB-13). The values are mean of assays performed in duplicate. Substantial inhibition of kinase activity (>20%) is in bold type.

p38α = p38α (Homo sapiens, UniProt Q16539); conditions: percentage of control assays without compound, mean of duplicate
Sequence of p38α (Q16539 whole entry): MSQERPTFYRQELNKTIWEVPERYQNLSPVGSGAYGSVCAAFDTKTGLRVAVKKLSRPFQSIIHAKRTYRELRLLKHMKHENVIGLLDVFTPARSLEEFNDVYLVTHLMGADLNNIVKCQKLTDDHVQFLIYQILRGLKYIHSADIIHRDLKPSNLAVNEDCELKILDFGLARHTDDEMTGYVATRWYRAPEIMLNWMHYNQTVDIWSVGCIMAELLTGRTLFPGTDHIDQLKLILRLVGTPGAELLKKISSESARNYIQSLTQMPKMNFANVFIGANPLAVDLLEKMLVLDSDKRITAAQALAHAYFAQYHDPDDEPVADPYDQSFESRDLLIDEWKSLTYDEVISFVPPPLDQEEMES
Procedure: as §1, §2, §3

CDK1/Cyclin B1 = CDK1/Cyclin B1 (Homo sapiens, UniProt P06493); conditions: percentage of control assays without compound, mean of duplicate
Sequence of CDK1/Cyclin B1 (P06493 whole entry, species assumed): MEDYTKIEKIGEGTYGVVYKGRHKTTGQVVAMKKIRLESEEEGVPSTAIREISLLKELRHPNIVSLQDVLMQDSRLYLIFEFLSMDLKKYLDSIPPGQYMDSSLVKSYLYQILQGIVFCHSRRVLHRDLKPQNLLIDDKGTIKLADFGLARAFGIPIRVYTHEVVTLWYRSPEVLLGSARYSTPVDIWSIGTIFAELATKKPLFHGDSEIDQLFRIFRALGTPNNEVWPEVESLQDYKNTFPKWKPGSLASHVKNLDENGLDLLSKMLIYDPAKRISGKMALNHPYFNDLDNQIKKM
Sequence of CDK1/Cyclin B1 (P14635 whole entry partner, species assumed): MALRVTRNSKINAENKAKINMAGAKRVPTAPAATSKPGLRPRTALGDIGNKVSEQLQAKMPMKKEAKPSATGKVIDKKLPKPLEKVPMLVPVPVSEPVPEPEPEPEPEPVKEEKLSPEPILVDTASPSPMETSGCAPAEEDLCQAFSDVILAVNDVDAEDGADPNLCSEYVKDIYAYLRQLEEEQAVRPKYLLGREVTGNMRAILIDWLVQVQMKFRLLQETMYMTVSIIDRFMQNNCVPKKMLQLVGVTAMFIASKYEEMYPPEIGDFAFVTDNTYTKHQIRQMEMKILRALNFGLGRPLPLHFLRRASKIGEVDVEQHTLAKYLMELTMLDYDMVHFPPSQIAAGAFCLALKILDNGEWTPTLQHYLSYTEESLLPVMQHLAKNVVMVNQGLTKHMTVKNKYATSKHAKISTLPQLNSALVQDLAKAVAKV
Procedure: as §1, §2, §3

ASK1 = target: T1, ASK1 (Homo sapiens, UniProt Q99683); conditions: percentage of control assays without compound, mean of duplicate
T1 sequence (Q99683 1-1374): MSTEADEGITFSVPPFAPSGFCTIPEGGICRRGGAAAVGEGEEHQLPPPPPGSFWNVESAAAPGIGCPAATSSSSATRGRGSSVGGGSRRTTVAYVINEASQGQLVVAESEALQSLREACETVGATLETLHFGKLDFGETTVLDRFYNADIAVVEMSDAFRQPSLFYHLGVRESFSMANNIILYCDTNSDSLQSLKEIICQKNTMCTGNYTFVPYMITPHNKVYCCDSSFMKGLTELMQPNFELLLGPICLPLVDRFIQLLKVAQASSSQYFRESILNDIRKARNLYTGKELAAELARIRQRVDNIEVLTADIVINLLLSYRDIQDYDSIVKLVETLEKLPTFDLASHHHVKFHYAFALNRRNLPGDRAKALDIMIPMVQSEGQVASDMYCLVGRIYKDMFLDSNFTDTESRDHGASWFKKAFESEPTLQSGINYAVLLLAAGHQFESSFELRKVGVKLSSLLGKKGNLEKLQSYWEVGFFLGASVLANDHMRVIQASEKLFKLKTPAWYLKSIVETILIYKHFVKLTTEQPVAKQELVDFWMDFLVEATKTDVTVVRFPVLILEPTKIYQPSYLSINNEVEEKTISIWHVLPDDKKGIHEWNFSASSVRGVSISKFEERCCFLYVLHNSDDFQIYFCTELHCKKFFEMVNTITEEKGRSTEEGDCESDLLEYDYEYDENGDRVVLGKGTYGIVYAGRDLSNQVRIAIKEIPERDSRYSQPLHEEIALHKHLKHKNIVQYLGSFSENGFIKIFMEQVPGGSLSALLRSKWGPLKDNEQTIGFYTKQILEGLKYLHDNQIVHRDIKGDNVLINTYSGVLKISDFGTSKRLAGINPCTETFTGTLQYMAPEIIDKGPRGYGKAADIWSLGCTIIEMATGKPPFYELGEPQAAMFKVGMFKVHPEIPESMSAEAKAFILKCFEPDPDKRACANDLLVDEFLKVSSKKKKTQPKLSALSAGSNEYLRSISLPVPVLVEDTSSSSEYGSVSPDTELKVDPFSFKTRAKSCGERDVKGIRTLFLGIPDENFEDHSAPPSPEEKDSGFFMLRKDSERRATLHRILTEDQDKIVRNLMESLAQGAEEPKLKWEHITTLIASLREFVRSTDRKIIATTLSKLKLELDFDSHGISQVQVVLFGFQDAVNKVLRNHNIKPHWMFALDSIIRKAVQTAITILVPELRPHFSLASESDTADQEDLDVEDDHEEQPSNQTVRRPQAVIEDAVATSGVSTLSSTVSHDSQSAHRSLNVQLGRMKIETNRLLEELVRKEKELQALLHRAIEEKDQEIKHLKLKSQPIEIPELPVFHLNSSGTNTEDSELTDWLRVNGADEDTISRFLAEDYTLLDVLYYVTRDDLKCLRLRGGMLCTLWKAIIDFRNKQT
Procedure: as §1, §2, §3

GSK3β = GSK3β (Homo sapiens, UniProt P49841); conditions: percentage of control assays without compound, mean of duplicate
Sequence of GSK3β (P49841 whole entry, species assumed): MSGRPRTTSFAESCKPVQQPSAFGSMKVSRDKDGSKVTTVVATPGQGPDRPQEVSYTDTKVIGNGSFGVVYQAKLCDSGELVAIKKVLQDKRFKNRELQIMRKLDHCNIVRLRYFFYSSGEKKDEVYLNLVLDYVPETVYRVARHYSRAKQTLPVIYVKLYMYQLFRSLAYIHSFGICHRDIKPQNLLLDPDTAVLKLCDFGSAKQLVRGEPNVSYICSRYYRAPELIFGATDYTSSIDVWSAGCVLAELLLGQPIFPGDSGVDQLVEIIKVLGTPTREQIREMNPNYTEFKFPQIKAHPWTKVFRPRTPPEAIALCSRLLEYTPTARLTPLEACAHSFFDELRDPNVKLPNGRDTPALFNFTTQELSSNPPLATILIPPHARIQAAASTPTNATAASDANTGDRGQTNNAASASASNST
Procedure: as §1, §2, §3

DAPK1 = DAPK1 (Homo sapiens, UniProt P53355); conditions: percentage of control assays without compound, mean of duplicate
Sequence of DAPK1 (P53355 whole entry, species assumed): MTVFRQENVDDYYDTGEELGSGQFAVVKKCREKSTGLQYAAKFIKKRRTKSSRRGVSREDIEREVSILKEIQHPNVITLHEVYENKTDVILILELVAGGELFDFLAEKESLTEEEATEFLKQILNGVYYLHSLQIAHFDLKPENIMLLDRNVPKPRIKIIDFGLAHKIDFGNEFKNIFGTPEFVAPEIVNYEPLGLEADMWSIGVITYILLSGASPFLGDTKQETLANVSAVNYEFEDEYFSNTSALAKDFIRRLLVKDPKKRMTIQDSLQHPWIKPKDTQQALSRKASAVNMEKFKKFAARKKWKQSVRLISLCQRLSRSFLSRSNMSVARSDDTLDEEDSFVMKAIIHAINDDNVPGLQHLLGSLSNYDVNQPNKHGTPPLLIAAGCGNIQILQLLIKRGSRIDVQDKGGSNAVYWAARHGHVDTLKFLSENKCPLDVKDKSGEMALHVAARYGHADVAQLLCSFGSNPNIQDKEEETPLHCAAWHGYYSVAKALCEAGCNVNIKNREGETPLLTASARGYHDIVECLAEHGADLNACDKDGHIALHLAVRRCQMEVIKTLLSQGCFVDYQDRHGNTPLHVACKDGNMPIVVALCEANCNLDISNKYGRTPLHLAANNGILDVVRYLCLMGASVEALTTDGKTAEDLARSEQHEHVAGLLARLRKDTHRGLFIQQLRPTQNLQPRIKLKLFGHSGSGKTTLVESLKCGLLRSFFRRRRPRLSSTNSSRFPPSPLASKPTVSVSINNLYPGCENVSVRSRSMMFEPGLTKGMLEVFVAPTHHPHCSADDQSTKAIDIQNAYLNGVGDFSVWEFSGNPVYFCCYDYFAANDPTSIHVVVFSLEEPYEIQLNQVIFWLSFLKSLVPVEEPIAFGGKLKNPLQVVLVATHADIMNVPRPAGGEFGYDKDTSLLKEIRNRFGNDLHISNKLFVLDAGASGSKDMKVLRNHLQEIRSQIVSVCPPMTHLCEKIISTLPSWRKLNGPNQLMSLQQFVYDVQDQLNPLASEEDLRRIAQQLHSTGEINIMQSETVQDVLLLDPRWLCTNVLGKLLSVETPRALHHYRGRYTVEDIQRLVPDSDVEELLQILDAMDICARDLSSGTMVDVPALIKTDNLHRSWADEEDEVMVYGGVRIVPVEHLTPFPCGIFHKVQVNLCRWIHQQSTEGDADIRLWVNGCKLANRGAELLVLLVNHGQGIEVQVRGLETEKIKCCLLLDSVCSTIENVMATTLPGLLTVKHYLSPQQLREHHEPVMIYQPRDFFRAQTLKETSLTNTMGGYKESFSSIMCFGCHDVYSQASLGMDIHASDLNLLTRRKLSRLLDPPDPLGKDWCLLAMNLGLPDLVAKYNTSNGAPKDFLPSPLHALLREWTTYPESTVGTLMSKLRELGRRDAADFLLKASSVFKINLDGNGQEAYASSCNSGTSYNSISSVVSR
Procedure: as §1, §2, §3

MEKK1 = MEKK1 (Homo sapiens, UniProt Q13233); conditions: percentage of control assays without compound, mean of duplicate
Procedure: as §1, §2, §3

GSK3α = GSK3α (Homo sapiens, UniProt P49840); conditions: percentage of control assays without compound, mean of duplicate
Sequence of GSK3α (P49840 whole entry, species assumed): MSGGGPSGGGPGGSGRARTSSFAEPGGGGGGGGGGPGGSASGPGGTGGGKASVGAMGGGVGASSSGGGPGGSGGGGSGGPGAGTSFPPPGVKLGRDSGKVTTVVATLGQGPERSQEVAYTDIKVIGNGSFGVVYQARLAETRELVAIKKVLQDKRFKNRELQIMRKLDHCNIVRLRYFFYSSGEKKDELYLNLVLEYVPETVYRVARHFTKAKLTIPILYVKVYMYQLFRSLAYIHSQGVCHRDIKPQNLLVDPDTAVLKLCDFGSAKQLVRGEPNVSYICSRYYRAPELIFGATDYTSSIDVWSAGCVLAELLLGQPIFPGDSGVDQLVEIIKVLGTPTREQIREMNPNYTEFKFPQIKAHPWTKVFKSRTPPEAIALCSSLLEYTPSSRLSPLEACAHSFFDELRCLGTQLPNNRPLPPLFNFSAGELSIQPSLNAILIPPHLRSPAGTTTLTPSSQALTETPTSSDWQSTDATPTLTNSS
Procedure: as §1, §2, §3

ROCK1 = ROCK1 (Homo sapiens, UniProt Q13464); conditions: percentage of control assays without compound, mean of duplicate
Procedure: as §1, §2, §3

MLK3 = MLK3 (Homo sapiens, UniProt Q16584); conditions: 100 nM, percentage of control assays without compound, mean of duplicate
Sequence of MLK3 (Q16584 whole entry, species assumed): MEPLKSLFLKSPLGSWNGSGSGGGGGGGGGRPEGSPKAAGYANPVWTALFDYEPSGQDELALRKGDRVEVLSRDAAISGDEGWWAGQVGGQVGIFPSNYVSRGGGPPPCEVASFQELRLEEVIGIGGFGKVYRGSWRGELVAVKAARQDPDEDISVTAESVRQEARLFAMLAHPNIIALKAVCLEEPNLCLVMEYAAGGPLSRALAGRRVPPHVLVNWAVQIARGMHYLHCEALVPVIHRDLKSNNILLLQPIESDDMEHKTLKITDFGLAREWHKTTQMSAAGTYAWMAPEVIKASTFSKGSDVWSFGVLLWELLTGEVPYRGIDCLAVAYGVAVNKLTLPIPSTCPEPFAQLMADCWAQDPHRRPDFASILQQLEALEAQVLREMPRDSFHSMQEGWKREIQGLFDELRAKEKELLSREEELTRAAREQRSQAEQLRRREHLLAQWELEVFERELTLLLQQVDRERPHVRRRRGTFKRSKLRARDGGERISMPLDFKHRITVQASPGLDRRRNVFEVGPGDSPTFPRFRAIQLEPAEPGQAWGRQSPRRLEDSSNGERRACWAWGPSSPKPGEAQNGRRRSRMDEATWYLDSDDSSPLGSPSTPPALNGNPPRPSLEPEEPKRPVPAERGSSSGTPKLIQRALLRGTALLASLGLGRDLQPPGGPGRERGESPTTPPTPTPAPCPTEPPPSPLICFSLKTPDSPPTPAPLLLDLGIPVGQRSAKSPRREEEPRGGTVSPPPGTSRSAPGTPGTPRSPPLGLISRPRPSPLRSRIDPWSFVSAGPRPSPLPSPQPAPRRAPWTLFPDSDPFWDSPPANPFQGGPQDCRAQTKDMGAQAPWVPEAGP
Procedure: as §1, §2, §3

JNK2 = JNK2 (Homo sapiens, UniProt P45984); conditions: percentage of control assays without compound, mean of duplicate
Sequence of JNK2 (P45984 whole entry, species assumed): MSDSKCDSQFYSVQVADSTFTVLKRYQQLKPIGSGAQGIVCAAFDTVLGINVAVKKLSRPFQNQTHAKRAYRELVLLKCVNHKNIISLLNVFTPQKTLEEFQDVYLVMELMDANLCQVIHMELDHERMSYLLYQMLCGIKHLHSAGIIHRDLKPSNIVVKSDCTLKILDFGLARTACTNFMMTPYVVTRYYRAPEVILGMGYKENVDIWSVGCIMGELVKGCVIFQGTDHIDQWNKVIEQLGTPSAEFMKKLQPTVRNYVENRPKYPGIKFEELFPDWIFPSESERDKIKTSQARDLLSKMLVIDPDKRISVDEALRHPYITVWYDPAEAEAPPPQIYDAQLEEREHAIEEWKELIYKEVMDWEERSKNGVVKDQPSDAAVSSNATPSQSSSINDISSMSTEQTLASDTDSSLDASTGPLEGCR
Procedure: as §1, §2, §3

[1] = 100 nM, listed as ASK2a, 0.1 µM

## O=C1Nc2ccccc2OC1=Cc1cc(Br)c(O)c(Br)c1 [ASK-2a]
CDK2/Cyclin A1; 100 nM
  % ACTIVITY: 104%
CDK2/Cyclin A1; 500 nM
  % ACTIVITY: 100%
p38α; 100 nM, 0.1 µM
  % ACTIVITY: 76%
p38α; [1]
  % ACTIVITY: inhibited efficiently
CDK1/Cyclin B1; 100 nM
  % ACTIVITY: 91%
CDK1/Cyclin B1; 500 nM
  % ACTIVITY: 98%
ASK1; 100 nM
  % ACTIVITY: 104%
ASK1; 500 nM
  % ACTIVITY: 97%
GSK3β; 100 nM, 0.1 µM
  % ACTIVITY: 55%
GSK3β; [1]
  % ACTIVITY: inhibited efficiently
DAPK1; 100 nM
  % ACTIVITY: 98%
DAPK1; 500 nM
  % ACTIVITY: 95%
MEKK1; 100 nM
  % ACTIVITY: 100%
MEKK1; 500 nM
  % ACTIVITY: 98%
GSK3α; 100 nM, 0.1 µM
  % ACTIVITY: 71%
GSK3α; [1]
  % ACTIVITY: inhibited efficiently
ROCK1; 100 nM
  % ACTIVITY: 96%
ROCK1; 500 nM
  % ACTIVITY: 98%
MLK3; 0.1 µM
  % ACTIVITY: 88%
MLK3; listed as ASK2a, 0.1 µM
  % ACTIVITY: inhibited less efficiently
JNK2; 100 nM
  % ACTIVITY: 95%
JNK2; 500 nM
  % ACTIVITY: 93%

## Nc1ccc2c(c1)NC(=O)/C(=C/c1cc(Br)c(O)c(Br)c1)O2 [HSB-13, (Z)-6-amino-2-(3,′5′-dibromo-4′-hydrozybenzylidene)-2H-benzo[b][1,4]oxazin-3(4H)-one]
CDK2/Cyclin A1; 100 nM
  % ACTIVITY: 82%
p38α; 100 nM
  % ACTIVITY: 88%
p38α; 500 nM
  % ACTIVITY: 43%
CDK1/Cyclin B1; 100 nM
  % ACTIVITY: 90%
ASK1; 100 nM
  % ACTIVITY: 104%
ASK1; 500 nM
  % ACTIVITY: 95%
GSK3β; 500 nM
  % ACTIVITY: 19%
DAPK1; 100 nM
  % ACTIVITY: 96%
DAPK1; 500 nM
  % ACTIVITY: 84%
MEKK1; 100 nM
  % ACTIVITY: 99%
MEKK1; 500 nM
  % ACTIVITY: 98%
GSK3α; 500 nM
  % ACTIVITY: 23%
ROCK1; 100 nM
  % ACTIVITY: 91%
MLK3
  % ACTIVITY: 94%
JNK2; 100 nM
  % ACTIVITY: 98%
